How the values were obtained:
Type in all cases: in vivo
Setaria viridis (SETVI) [1] = experiment: Post-emergence herbicidal efficacy at 80 g/ha, greenhouse pot test; details: visual rating vs untreated control after about 3 weeks
Method in brief: (§1)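 Visual rating of activity versus untreated plants after about 3 greenhouse weeks, 0% meaning control-like and 100% meaning dead. Plants in sandy loam were sprayed at one-leaf stage (2–3 weeks post-sowing) with WP/EC compound suspensions or emulsions, 0.5% additive, 600 l/ha water.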

[2] = system: Amaranthus retroflexus (AMARE); experiment: as above; details: visual rating vs untreated control after about 3 weeks
Method in brief: as §1

Veronica persica (VERPE) [3] = experiment: Post-emergence herbicidal efficacy at 320 g/ha, greenhouse pot test; details: 320 g/ha, visual rating vs untreated control after about 3 weeks
Method in brief: (§2)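 Scoring was visual, about 3 weeks post-treatment, versus untreated plants on a 0–100% scale (100% = dead). Foliar application to one-leaf-stage greenhouse weeds in sandy loam, compounds as aqueous WP/EC suspension or emulsion with 0.5% additive, 600 L/ha spray volume.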

Stellaria media (STEME) [4] = experiment: as above; details: visual rating vs untreated control after about 3 weeks
Method in brief: as §2

[5] = system: Abutilon theophrasti (ABUTH); experiment: as above; details: visual rating vs untreated control after about 3 weeks
Method in brief: as §2

Poa annua (POAAN) [6] = experiment: as above; details: visual rating vs untreated control after about 3 weeks
Method in brief: as §2

[7] = system: Amaranthus retroflexus (AMARE); experiment: as above; details: visual rating vs untreated control after about 3 weeks
Method in brief: as §2

Bassia scoparia (KCHSC) [8] = experiment: as above; details: visual rating vs untreated control after about 3 weeks
Method in brief: as §2

Setaria viridis (SETVI) [9] = experiment: Pre-emergence herbicide efficacy at 80 g/ha, greenhouse pot test; details: visual scoring vs untreated control after about 3 weeks
Method in brief: (§3)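 Seeds were sown in pots and covered with soil, then the compound (WP or EC formulation) was sprayed onto the soil surface as an aqueous suspension or emulsion with 0.5% additive. Pots were kept in a greenhouse, and after about 3 weeks activity was scored visually versus untreated controls (100% = plants dead, 0% = like control).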

Veronica persica (VERPE) [10] = experiment: as above; details: visual scoring vs untreated control after about 3 weeks
Method in brief: as §3

[11] = system: Abutilon theophrasti (ABUTH); experiment: as above; details: visual scoring vs untreated control after about 3 weeks
Method in brief: as §3

[12] = system: Amaranthus retroflexus (AMARE); experiment: as above; details: visual scoring vs untreated control after about 3 weeks
Method in brief: as §3

Viola tricolor (VIOTR) = experiment: as above; details: visual scoring vs untreated control after about 3 weeks
Method in brief: as §3

[13] = system: Echinochloa crus-galli (ECHCG); experiment: as above; details: visual scoring vs untreated control after about 3 weeks
Method in brief: as §3

[14] = system: Polygonum convolvulus (POLCO); experiment: as above; details: visual scoring vs untreated control after about 3 weeks
Method in brief: as §3

[15] = system: Alopecurus myosuroides (ALOMY); experiment: Pre-emergence herbicide efficacy at 320 g/ha, greenhouse pot test; details: visual scoring vs untreated control after about 3 weeks
Method in brief: (§4)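 Pre-emergence, greenhouse: sandy loam pots, seeds covered with soil; compound as WP/EC in water + 0.5% additive, 600 L/ha spray volume onto covering soil. Readout: visual % effect at ~3 wk vs untreated (100% = dead, 0% = as control).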

Setaria viridis (SETVI) [16] = experiment: as above; details: visual scoring vs untreated control after about 3 weeks
Method in brief: as §4

Veronica persica (VERPE) [17] = experiment: as above; details: visual scoring vs untreated control after about 3 weeks
Method in brief: as §4

Stellaria media (STEME) [18] = experiment: as above; details: visual scoring vs untreated control after about 3 weeks
Method in brief: as §4

[19] = system: Abutilon theophrasti (ABUTH); experiment: as above; details: visual scoring vs untreated control after about 3 weeks
Method in brief: as §4

Poa annua (POAAN) [20] = experiment: as above; details: visual scoring vs untreated control after about 3 weeks
Method in brief: as §4

[21] = system: Amaranthus retroflexus (AMARE); experiment: as above; details: visual scoring vs untreated control after about 3 weeks
Method in brief: as §4

[22] = system: Matricaria inodora (MATIN); experiment: as above; details: visual scoring vs untreated control after about 3 weeks
Method in brief: as §4

[23] = system: Echinochloa crus-galli (ECHCG); experiment: as above; details: visual scoring vs untreated control after about 3 weeks
Method in brief: as §4

Bassia scoparia (KCHSC) [24] = experiment: as above; details: dosage 1280 g/ha in Table C6, visual scoring after about 3 weeks
Method in brief: as §4

[25] = system: Alopecurus myosuroides (ALOMY); experiment: Pre-emergence herbicide efficacy at 80 g/ha, greenhouse pot test; details: visual scoring vs untreated control after about 3 weeks
Method in brief: as §3

Ipomoea purpurea (PHBPU) = experiment: as above; details: visual scoring vs untreated control after about 3 weeks
Method in brief: as §3

[26] = system: Matricaria inodora (MATIN); experiment: as above; details: visual scoring vs untreated control after about 3 weeks
Method in brief: as §3

[27] = system: Polygonum convolvulus (POLCO); experiment: Post-emergence herbicidal efficacy at 80 g/ha, greenhouse pot test; details: visual rating vs untreated control after about 3 weeks
Method in brief: as §1

Lolium rigidum (LOLRI) = experiment: Pre-emergence herbicide efficacy at 320 g/ha, greenhouse pot test; details: visual scoring vs untreated control after about 3 weeks
Method in brief: as §4

Row | SMILES | Post-emergence efficacy against Setaria viridis (SETVI) (Setaria viridis (SETVI) [1]) [%] | Post-emergence efficacy against Amaranthus retroflexus (AMARE) [2] [%] | Post-emergence efficacy against Veronica persica (VERPE) (Veronica persica (VERPE) [3]) [%] | Post-emergence action against Stellaria media (STEME) (Stellaria media (STEME) [4]) [%] | Post-emergence efficacy against Abutilon theophrasti (ABUTH) [5] [%] | Post-emergence efficacy against Poa annua (POAAN) (Poa annua (POAAN) [6]) [%] | Post-emergence efficacy against Amaranthus retroflexus (AMARE) [7] [%] | Pre-emergence efficacy against Setaria viridis (SETVI) (Setaria viridis (SETVI) [9]) [%] | Pre-emergence efficacy against Abutilon theophrasti (ABUTH) [11] [%] | Pre-emergence efficacy against Amaranthus retroflexus (AMARE) [12] [%] | Pre-emergence efficacy against Viola tricolor (VIOTR) (Viola tricolor (VIOTR)) [%] | Pre-emergence efficacy against Echinochloa crus-galli (ECHCG) [13] [%] | Pre-emergence efficacy against Polygonum convolvulus (POLCO) [14] [%] | Pre-emergence efficacy against Setaria viridis (SETVI) (Setaria viridis (SETVI) [16]) [%] | Pre-emergence efficacy against Veronica persica (VERPE) (Veronica persica (VERPE) [17]) [%] | Pre-emergence efficacy against Stellaria media (STEME) (Stellaria media (STEME) [18]) [%] | Pre-emergence efficacy against Abutilon theophrasti (ABUTH) [19] [%] | Pre-emergence efficacy against Poa annua (POAAN) (Poa annua (POAAN) [20]) [%] | Pre-emergence efficacy against Amaranthus retroflexus (AMARE) [21] [%] | Pre-emergence efficacy against Matricaria inodora (MATIN) [22] [%] | other results
1 | Cc1cc(C)c(-c2cc(C(F)F)no2)c(Oc2ncc(C(F)(F)F)cn2)n1 [Example I-45] | 80 | 80 | 100 | 100 | 90 | 100 | 100 | 90 | 90 | 100 | 90 | 80 | 80 | 100 | 100 | 100 | 100 | 100 | 100 | 100 | Post-emergence efficacy against Bassia scoparia (KCHSC) (Bassia scoparia (KCHSC) [8]): 90%; Pre-emergence efficacy against Veronica persica (VERPE) (Veronica persica (VERPE) [10]): 80%; Pre-emergence efficacy against Alopecurus myosuroides (ALOMY) [15]: 100%; Pre-emergence efficacy against Echinochloa crus-galli (ECHCG) [23]: 100%; Pre-emergence efficacy against Bassia scoparia (KCHSC) (Bassia scoparia (KCHSC) [24]): 100%
2 | Cc1cc(C)c(-n2cc(Br)cn2)c(Oc2ncc(F)cn2)n1 [Example I-277] | 80 | 80 | 90 | 90 | 90 | 90 | 100 | 100 | 90 | 100 | 100 | 100 | 100 | 100 | 100 | 100 | 100 | 100 | 100 | 90 | Post-emergence efficacy against Bassia scoparia (KCHSC) (Bassia scoparia (KCHSC) [8]): 100%; Pre-emergence efficacy against Alopecurus myosuroides (ALOMY) [25]: 80%; Pre-emergence efficacy against Ipomoea purpurea (PHBPU) (Ipomoea purpurea (PHBPU)): 100%; Pre-emergence efficacy against Veronica persica (VERPE) (Veronica persica (VERPE) [10]): 80%; Pre-emergence efficacy against Matricaria inodora (MATIN) [26]: 100%; Pre-emergence efficacy against Echinochloa crus-galli (ECHCG) [23]: 100%; Pre-emergence efficacy against Bassia scoparia (KCHSC) (Bassia scoparia (KCHSC) [24]): 100%
3 | Cc1cc(C)c(-n2cc(I)cn2)c(Oc2ncc(F)cn2)n1 [Example I-294] | 90 | 80 | 100 | 100 | 90 | 90 | 100 | 100 | 90 | 100 | 100 | 90 | 90 | 100 | 100 | 100 | 100 | 100 | 100 | 100 | Post-emergence efficacy against Polygonum convolvulus (POLCO) [27]: 80%; Pre-emergence efficacy against Alopecurus myosuroides (ALOMY) [25]: 90%; Pre-emergence efficacy against Ipomoea purpurea (PHBPU) (Ipomoea purpurea (PHBPU)): 100%; Pre-emergence efficacy against Matricaria inodora (MATIN) [26]: 100%; Pre-emergence efficacy against Lolium rigidum (LOLRI) (Lolium rigidum (LOLRI)): 100%; Pre-emergence efficacy against Echinochloa crus-galli (ECHCG) [23]: 100%; Pre-emergence efficacy against Bassia scoparia (KCHSC) (Bassia scoparia (KCHSC) [24]): 100%

From patent US20230303549A1, “SUBSTITUTED HETEROARYLOXYPYRIDINES, THE SALTS THEREOF AND THEIR USE AS HERBICIDAL AGENTS” (Bayer Aktiengesellschaft, priority 2020, published 2023)
